Experimental findings from patent US9650379B2 (CHONG KUN DANG PHARMACEUTICAL CORP., priority 2013, dated 2017) are described below.

In data set [1] the target is T1, HDAC6 human recombinant (Homo sapiens, UniProt Q9UBN7).
T1 construct: purchased Calbiochem 382180
T1 sequence (Q9UBN7 1-1215): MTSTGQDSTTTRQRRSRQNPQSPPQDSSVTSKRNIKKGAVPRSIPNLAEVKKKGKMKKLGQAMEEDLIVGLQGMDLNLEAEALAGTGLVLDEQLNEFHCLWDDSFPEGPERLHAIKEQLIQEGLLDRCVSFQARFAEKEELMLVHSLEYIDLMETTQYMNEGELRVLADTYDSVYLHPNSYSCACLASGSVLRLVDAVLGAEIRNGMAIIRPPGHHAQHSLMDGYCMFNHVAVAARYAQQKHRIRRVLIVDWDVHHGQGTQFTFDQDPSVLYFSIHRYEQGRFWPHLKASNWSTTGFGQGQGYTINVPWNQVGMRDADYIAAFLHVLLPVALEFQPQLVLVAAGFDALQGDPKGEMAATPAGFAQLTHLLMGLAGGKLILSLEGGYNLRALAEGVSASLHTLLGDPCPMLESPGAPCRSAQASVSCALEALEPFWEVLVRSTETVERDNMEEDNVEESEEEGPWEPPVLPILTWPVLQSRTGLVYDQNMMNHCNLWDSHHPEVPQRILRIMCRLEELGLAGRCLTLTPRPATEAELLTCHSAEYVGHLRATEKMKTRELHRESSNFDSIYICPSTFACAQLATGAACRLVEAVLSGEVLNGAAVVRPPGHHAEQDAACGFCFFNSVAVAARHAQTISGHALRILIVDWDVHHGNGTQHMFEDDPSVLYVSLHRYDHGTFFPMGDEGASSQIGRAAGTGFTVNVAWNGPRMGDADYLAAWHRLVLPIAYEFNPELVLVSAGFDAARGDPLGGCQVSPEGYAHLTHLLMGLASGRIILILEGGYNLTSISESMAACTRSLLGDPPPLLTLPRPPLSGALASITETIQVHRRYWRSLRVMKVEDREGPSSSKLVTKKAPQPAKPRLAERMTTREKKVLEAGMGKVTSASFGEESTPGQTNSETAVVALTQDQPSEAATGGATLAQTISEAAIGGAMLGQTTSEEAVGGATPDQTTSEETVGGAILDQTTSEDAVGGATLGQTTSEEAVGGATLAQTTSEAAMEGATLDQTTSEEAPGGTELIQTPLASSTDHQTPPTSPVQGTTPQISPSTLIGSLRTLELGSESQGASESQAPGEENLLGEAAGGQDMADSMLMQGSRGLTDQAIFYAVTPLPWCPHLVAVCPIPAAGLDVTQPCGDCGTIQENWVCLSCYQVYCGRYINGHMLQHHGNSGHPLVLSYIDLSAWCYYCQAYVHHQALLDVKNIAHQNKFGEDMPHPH
As to the kind of experiment: Inhibition of HDAC6 activity (fluorimetric assay). The format is biochemical. The conditions noted are these: test concentrations 0.1, 1, 10, 100 and 1000 nM; 37° C., 60 minutes. In a few lines: (§1)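 HDAC1 tested with the kit assay mixture at 100, 1000 and 10000 nM compound; recombinant human HDAC6 at 0.1, 1, 10, 100 and 1000 nM. Reaction ran 60 min at 37° C, then developer was added for 30 min at 37° C and fluorescence quantified.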

Data set [2] has as its target T2, HDAC1 (Homo sapiens, UniProt Q13547).
T2 construct: purchased Enzolifesciences BML-AK511
As to the kind of experiment: Inhibition of HDAC1 activity (HDAC1 fluorimetric drug discovery assay kit). The format is biochemical. As to conditions: test concentrations 100, 1000 and 10000 nM; 37° C., 60 minutes. In a few lines: as §1

Data set [3] has as its system tubulin acetylation (HDAC6) in RPMI8226 cells. As to the kind of experiment: Western blot analysis of tubulin acetylation in cells. The format is cell-based. As to conditions: 24 hours, Western blot (FIG. 1). The procedure:
Specifically, RPMI8226 cells were seeded into a six-well plate at a density of 1.0×10^6 cells/well, and then treated with varying concentrations of each of compounds 636 and 642. After 24 hours, protein was extracted from the cells using RIPA buffer and quantified by the Bradford method. 25 μg of the protein was dissolved to sample buffer and electrophoresed on 4-12% gradient gel, and the gel was transferred to a nitrocellulose membrane for 50 minutes. The membrane was blocked in 5% skim milk solution for 1 hour. Anti-acetyl H3 antibody (1:2,000), anti-acetyl H4 antibody (1:5,000), anti-acetyl tubulin antibody (1:5,000) and anti-β-actin antibody (1:10,000) were added to 5% skim milk, and the membrane was immersed in the skim milk and allowed to react at 4° C. for 16 hours, after which it was washed three times with 1×TBS-T for 10 minutes each washing. IgG-HRP antibody (1:5,000) was added to 5% skim milk, and the membrane was immersed in the skim milk and allowed to react at room temperature for 40 minutes, after which it was washed three times with 1×TBS-T for 10 minutes each washing. Detection was performed by LAS 3000 using ECL solution.

The subject of data set [4] is CTLA4 expression in iTreg (CD4+CD25+Foxp3+) cells. Description: CTLA4 assay in induced regulatory T cells. Format: cell-based, C57BL/6 mouse. As to conditions: 6 days incubation. An excerpt: In order to evaluate the effect of the compounds of the present invention on the expression of CTLA4, FOXP3+ induced regulatory T cells were induced from effector T cells (CD4+CD25−) isolated from the spleen of C57BL/6 mouse. Specifically, 6-week-old C57BL/6 mouse were purchased, and spleens were isolated therefrom, and separated into single cells by treatment with collagenase D. Effector T cells (CD4+CD25−, Teff) were separated from the mouse spleen cells using a CD4+CD25 regulatory T cell isolation kit (Miltenyi Biotec). Teff were plated on a 48-well plate at a density of 5×10^5 cells/well, and activated by adding a […] mAb-conjugated magnetic bead (T cell Activation/Expansion kit, Miltenyi Biotec) thereto. The activated cells were treated with TGF-β2 and each compound, and after 6 days, the cells were subjected to cell surface staining with CD4-PECy7 and CD25-APC (eBioscience) and to intracellular staining with FOXP3-Alexafluor488 and CTLA4-PE (eBioscience). Then, a change in the expression of CTLA4 in the induced regulatory T cells (iTreg) was analyzed by FACS Canto II (BD bioscience).

Data set [5] has as its system proliferation of effector T cells (Teff) co-cultured with Treg. As to the kind of experiment: Regulatory T cell suppression function, Treg/Teff co-culture. Format: cell-based, C57BL/6 mouse. As to conditions: Teff:Treg 2:1 co-culture, 3 days; vehicle group 27% suppression. The procedure:
The effect of compound 636 on the proliferation of effector T cells in the co-culture condition of the regulatory T cells (Treg) and effector T cells (Teff) isolated from the spleen of C57BL/6 mouse was evaluated.
Specifically, 6-week-old C57BL/6 mouse were purchased, and spleens were isolated therefrom, and separated into single cells by treatment with collagenase D. Teff (CD4^+CD25^−) and Treg (CD4^+CD25^high) were isolated from the mouse spleen cells using a CD4^+CD25^high regulatory T cell isolation kit (Miltenyi Biotec). The Teff were stained with 5 μM Cell Proliferation Dye eFluor® 670 (eBioscience) at 37° C. under a light-shielded condition for 10 minutes, and incubated in cold complete media on ice for 5 minutes to stop the staining reaction, and then washed three times with complete media. The eFluor-stained effector T cells and the Treg were co-cultured on a U-bottom plate at a ratio of 2:1, and activated by adding a CD3εCD28 mAb-conjugated magnetic bead (T cell Activation/Expansion kit, Miltenyi Biotec) thereto. The activated cells were treated with compound 636, and after 3 days, the proliferation of the Teff was evaluated by analyzing the dilution pattern of eFluor® 670 with FACS Canto II (BD bioscience).

Data set [6] relates to effector T cells (Teff). Description: Viability (death) of Teff cells. Format: cell-based, C57BL/6 mouse. The conditions noted are these: treated for 24 hours.

T2 sequence (Q13547 whole entry): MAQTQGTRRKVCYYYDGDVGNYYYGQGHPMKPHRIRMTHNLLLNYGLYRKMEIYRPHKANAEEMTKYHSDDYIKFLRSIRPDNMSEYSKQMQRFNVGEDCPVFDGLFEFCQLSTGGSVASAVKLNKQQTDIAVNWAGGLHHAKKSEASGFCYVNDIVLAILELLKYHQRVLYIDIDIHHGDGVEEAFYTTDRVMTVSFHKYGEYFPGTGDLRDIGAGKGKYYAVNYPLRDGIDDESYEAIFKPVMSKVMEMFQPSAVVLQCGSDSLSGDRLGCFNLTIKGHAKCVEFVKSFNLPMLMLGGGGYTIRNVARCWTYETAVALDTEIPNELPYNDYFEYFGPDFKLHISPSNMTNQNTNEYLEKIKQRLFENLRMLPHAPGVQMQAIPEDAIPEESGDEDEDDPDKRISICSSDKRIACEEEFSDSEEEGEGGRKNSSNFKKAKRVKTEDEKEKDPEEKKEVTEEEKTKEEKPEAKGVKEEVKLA

In the case of `CC(C)(F)CN1CCN(c2ccnc3c2ccn3Cc2ccc(C(=O)NO)cc2)CC1` [Compound 642, 4-((4-(4-(2-fluoro-2-methylpropyl)piperazin-1-yl)-1H-pyrrolo[2,3-b]pyridin-1-yl)methyl)-N-hydroxybenzamide], the IC50 is 9 nM in data set [1] and 4310 nM in data set [2]. Also, the “compound concentration at which tubulin acetylation (HDAC6) appeared” value in data set [3] is on record as “about 300 nM”. Also, in data set [4] (concentration not stated separately), the “increase of the expression of CTLA4 in the iTreg cells” value is at least 2 times.
On to `CC(C)(F)CN1CCC(c2ccnc3c2ccn3Cc2ccc(C(=O)NO)cc2)CC1` [Compound 636, 4-((4-(1-(2-fluoro-2-methylpropyl)piperidin-4-yl)-1H-pyrrolo[2,3-b]pyridin-1-yl)methyl)-N-hydroxybenzamide], for which the IC50 was 8 nM in data set [1] and 930 nM in data set [2]. Further, in data set [3], the “compound concentration at which tubulin acetylation (HDAC6) appeared” value was “about 300 nM”. The “increase of the expression of CTLA4 in the iTreg (CD4+CD25+Foxp3+) population” value in data set [4] (concentrations of 100 and 500 nM) was 1.5-2 times. Further, the “suppression ratio of Teff relative to the vehicle group” value in data set [5] is recorded as 2 times. For the same compound, the “viability of the Teff versus non-drug-treated group” value in data set [6] is “did not differ”.
In the case of `O=C(NO)c1ccc(Cn2ccc3cc(N4CCC5(CCN(Cc6cccnc6)C5)CC4)cnc32)cc1` [Compound 1101, N-hydroxy-4-((5-(2-(pyridin-3-ylmethyl)-2,8-diazaspiro[4.5]decan-8-yl)-1H-pyrrolo[2,3-b]pyridin-1-yl)methyl)benzamide], the values for the IC50 in data set [1] and in data set [2] were 1 nM and 500 nM, respectively.
In the case of `O=C(NO)c1ccc(Cn2ccc3c(N4CCC5(CC4)CN(Cc4cccnc4)C5)ccnc32)cc1` [Compound 1024, N-hydroxy-4-((4-(2-(pyridin-3-ylmethyl)-2,7-diazaspiro[3.5]nonan-7-yl)-1H-pyrrolo[2,3-b]pyridin-1-yl)methyl)benzamide], the IC50 in data set [1] stood at 1.8 nM; in data set [2], 190 nM.
On to `CC(C)N1CCN(c2ccnc3c2ccn3Cc2ccc(C(=O)NO)cc2)CC1` [Compound 225, N-hydroxy-4-((4-(4-isopropylpiperazin-1-yl)-1H-pyrrolo[2,3-b]pyridin-1-yl)methyl)benzamide], for which the 50% inhibitory concentration (IC50) in data set [1] was determined as 3 nM; in data set [2], 410 nM.
As to `O=C(NO)c1ccc(Cn2ccc3cc(C4CCNCC4)cnc32)cc1` [Compound 715, N-hydroxy-4-((5-(piperidin-4-yl)-1H-pyrrolo[2,3-b]pyridin-1-yl)methyl)benzamide], the values for the IC50 in data set [1] and in data set [2] were 8 nM and 540 nM, respectively.
With `CN1CCN(c2ccccc2CN2CCC(c3ccnc4c3ccn4Cc3ccc(C(=O)NO)cc3)CC2)CC1` [Compound 984, N-hydroxy-4-((4-(1-(2-(4-methylpiperazin-1-yl)benzyl)piperidin-4-yl)-1H-pyrrolo[2,3-b]pyridin-1-yl)methyl)benzamide], the IC50 in data set [1] was 7.6 nM; in data set [2], 530 nM.
